#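 Test compounds were applied to cells in 96-well plates for 48 hours at 5 doses. The concentration for full growth arrest is given as TGI.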
# Columns and labels:
# Assay in all cases: inhibition of tumour cell growth, NCI panel, 48 h
# CCRF-CEM leukemia = test system: CCRF-CEM leukemia
# M14 melanoma = test system: M14 melanoma
# SF-268 CNS = test system: SF-268 CNS
# SF-539 CNS = test system: SF-539 CNS
# IGROV1 ovarian = test system: IGROV1 ovarian
# SN12C renal = test system: SN12C renal
# RPMI-8226 leukemia = test system: RPMI-8226 leukemia
# A498 renal = test system: A498 renal
# EKVX NSCLC = test system: EKVX NSCLC
# MOLT-4 leukemia = test system: MOLT-4 leukemia
# HOP-92 NSCLC = test system: HOP-92 NSCLC
# UO-31 renal = test system: UO-31 renal
# KM20L2 colon = test system: KM20L2 colon
# DLD-1 colon = test system: DLD-1 colon
# SW-620 colon = test system: SW-620 colon
# HCT-15 colon = test system: HCT-15 colon
# NCI-H522 lung = test system: NCI-H522 lung
# 786-0 renal = test system: 786-0 renal
# OVCAR-4 ovarian = test system: OVCAR-4 ovarian
# NCI-H460 lung = test system: NCI-H460 lung
# K-562 leukemia = test system: K-562 leukemia
# HT29 colon = test system: HT29 colon
# RXF 393 renal = test system: RXF 393 renal
# LXFL 529 NSCLC = test system: LXFL 529 NSCLC
# OVCAR-5 ovarian = test system: OVCAR-5 ovarian
# SK-OV-3 ovarian = test system: SK-OV-3 ovarian
# TK-10 renal = test system: TK-10 renal
# OVCAR-8 ovarian = test system: OVCAR-8 ovarian
# A549 NSCLC = test system: A549 NSCLC
# XF 498 CNS = test system: XF 498 CNS
# CAKI-1 renal = test system: CAKI-1 renal
# UACC-257 melanoma = test system: UACC-257 melanoma
# DMS 114 small cell lung = test system: DMS 114 small cell lung
# ACHN renal = test system: ACHN renal
# UACC-62 melanoma = test system: UACC-62 melanoma
# COLO 205 colon = test system: COLO 205 colon
# NCI-H23 lung = test system: NCI-H23 lung
# MALME-3M melanoma = test system: MALME-3M melanoma
# SK-MEL-5 melanoma = test system: SK-MEL-5 melanoma
# M19-MEL melanoma = test system: M19-MEL melanoma
# KM12 colon = test system: KM12 colon
# LOX IMVI melanoma = test system: LOX IMVI melanoma
# SNB-78 CNS = test system: SNB-78 CNS
# SK-MEL-28 melanoma = test system: SK-MEL-28 melanoma
# HOP-62 NSCLC = test system: HOP-62 NSCLC
# OVCAR-3 ovarian = test system: OVCAR-3 ovarian
# NCI-H226 lung = test system: NCI-H226 lung
# SK-MEL-2 melanoma = test system: SK-MEL-2 melanoma
# DMS 273 small cell lung = test system: DMS 273 small cell lung
# SF-295 CNS = test system: SF-295 CNS
# HCC-2998 colon = test system: HCC-2998 colon
# HL-60(TB) leukemia = test system: HL-60(TB) leukemia
# SNB-19 CNS = test system: SNB-19 CNS
# SNB-75 CNS = test system: SNB-75 CNS
# HOP-18 NSCLC = test system: HOP-18 NSCLC
# HCT-116 colon = test system: HCT-116 colon
# U251 CNS = test system: U251 CNS
# HS 578T breast = test system: HS 578T breast
# MDA-N = test system: MDA-N
# MDA-MB-435 = test system: MDA-MB-435
# DU-145 prostate = test system: DU-145 prostate
# MDA-MB-231 breast = test system: MDA-MB-231 breast
# BT-549 breast = test system: BT-549 breast
# MCF7 breast = test system: MCF7 breast
# T-47D breast = test system: T-47D breast
# PC-3 prostate = test system: PC-3 prostate
# SR leukemia = test system: SR leukemia
smiles,measurement,setting,value
CN1c2ccccc2N(C(=O)c2ccc(Cl)cc2)C(CC(=O)O)c2cccn21 (configuration not stated),TGI,CCRF-CEM leukemia,> 100 µM
same,TGI,M14 melanoma,> 100 µM
same,TGI,SF-268 CNS,> 100 µM
same,TGI,SF-539 CNS,> 100 µM
same,TGI,IGROV1 ovarian,> 100 µM
same,TGI,SN12C renal,> 100 µM
same,TGI,RPMI-8226 leukemia,> 100 µM
same,TGI,A498 renal,> 100 µM
same,TGI,EKVX NSCLC,> 100 µM
same,TGI,MOLT-4 leukemia,> 100 µM
same,TGI,HOP-92 NSCLC,> 100000 nM
same,TGI,UO-31 renal,> 100 µM
same,TGI,KM20L2 colon,> 100 µM
same,TGI,DLD-1 colon,> 100 µM
same,TGI,SW-620 colon,> 100 µM
same,TGI,HCT-15 colon,> 100 µM
same,TGI,NCI-H522 lung,> 100 µM
same,TGI,786-0 renal,> 100 µM
same,TGI,OVCAR-4 ovarian,> 100 µM
same,TGI,NCI-H460 lung,> 100 µM
same,TGI,K-562 leukemia,> 100 µM
same,TGI,HT29 colon,> 100 µM
same,TGI,RXF 393 renal,> 100 µM
same,TGI,LXFL 529 NSCLC,> 100 µM
same,TGI,OVCAR-5 ovarian,> 100000 nM
same,TGI,SK-OV-3 ovarian,> 100 µM
same,TGI,TK-10 renal,> 100 µM
same,TGI,OVCAR-8 ovarian,> 100 µM
same,TGI,A549 NSCLC,> 100 µM
same,TGI,XF 498 CNS,> 100000 nM
same,TGI,CAKI-1 renal,> 100 µM
same,TGI,UACC-257 melanoma,> 100 µM
same,TGI,DMS 114 small cell lung,> 100000 nM
same,TGI,ACHN renal,> 100 µM
same,TGI,UACC-62 melanoma,> 100 µM
same,TGI,COLO 205 colon,> 100 µM
same,TGI,NCI-H23 lung,> 100 µM
same,TGI,MALME-3M melanoma,> 100 µM
same,TGI,SK-MEL-5 melanoma,> 100 µM
same,TGI,M19-MEL melanoma,> 100 µM
same,TGI,KM12 colon,> 100 µM
same,TGI,LOX IMVI melanoma,> 100 µM
same,TGI,SNB-78 CNS,> 100 µM
same,TGI,SK-MEL-28 melanoma,> 100000 nM
same,TGI,HOP-62 NSCLC,> 100 µM
same,TGI,OVCAR-3 ovarian,> 100 µM
same,TGI,NCI-H226 lung,> 100 µM
same,TGI,SK-MEL-2 melanoma,> 100 µM
same,TGI,DMS 273 small cell lung,> 100 µM
same,TGI,SF-295 CNS,> 100 µM
same,TGI,HCC-2998 colon,> 100 µM
same,TGI,HL-60(TB) leukemia,> 100 µM
same,TGI,SNB-19 CNS,> 100 µM
same,TGI,SNB-75 CNS,> 100 µM
CC(C)CCCC(C)[C@H]1CCC2[C@@H]3CCC4Nc5nocc5C[C@]4(C)C3CC[C@@]21C (some centres not stated),TGI,CCRF-CEM leukemia,36.9 µM
same,TGI,HOP-18 NSCLC,34.7 µM
same,TGI,M14 melanoma,41.8 µM
same,TGI,SF-268 CNS,36.8 µM
same,TGI,SF-539 CNS,33.5 µM
same,TGI,IGROV1 ovarian,57 µM
same,TGI,SN12C renal,33.8 µM
same,TGI,RPMI-8226 leukemia,69.3 µM
same,TGI,A498 renal,36.1 µM
same,TGI,EKVX NSCLC,31.3 µM
same,TGI,MOLT-4 leukemia,46.5 µM
same,TGI,UO-31 renal,27.9 µM
same,TGI,KM20L2 colon,41.7 µM
same,TGI,DLD-1 colon,41 µM
same,TGI,SW-620 colon,31.4 µM
same,TGI,HCT-15 colon,30.3 µM
same,TGI,NCI-H522 lung,14.5 µM
same,TGI,786-0 renal,25.9 µM
same,TGI,OVCAR-4 ovarian,39.3 µM
same,TGI,NCI-H460 lung,47.1 µM
same,TGI,K-562 leukemia,38.3 µM
same,TGI,HT29 colon,37.1 µM
same,TGI,RXF 393 renal,28.5 µM
same,TGI,LXFL 529 NSCLC,27.3 µM
same,TGI,SK-OV-3 ovarian,34.8 µM
same,TGI,TK-10 renal,21.1 µM
same,TGI,OVCAR-8 ovarian,35.9 µM
same,TGI,A549 NSCLC,54.8 µM
same,TGI,CAKI-1 renal,29 µM
same,TGI,UACC-257 melanoma,39.5 µM
same,TGI,ACHN renal,28.6 µM
same,TGI,UACC-62 melanoma,40.7 µM
same,TGI,COLO 205 colon,20.4 µM
same,TGI,NCI-H23 lung,31.4 µM
same,TGI,MALME-3M melanoma,40.2 µM
same,TGI,SK-MEL-5 melanoma,29.2 µM
same,TGI,M19-MEL melanoma,33.7 µM
same,TGI,KM12 colon,38.4 µM
same,TGI,LOX IMVI melanoma,4.95 µM
same,TGI,SNB-78 CNS,42.1 µM
same,TGI,HOP-62 NSCLC,> 100 µM
same,TGI,OVCAR-3 ovarian,20.5 µM
same,TGI,NCI-H226 lung,37.3 µM
same,TGI,SK-MEL-2 melanoma,38.7 µM
same,TGI,DMS 273 small cell lung,37.3 µM
same,TGI,SF-295 CNS,34 µM
same,TGI,HCC-2998 colon,29.5 µM
same,TGI,HCT-116 colon,32.4 µM
same,TGI,HL-60(TB) leukemia,27.6 µM
same,TGI,SNB-19 CNS,37.5 µM
same,TGI,SNB-75 CNS,33.8 µM
same,TGI,U251 CNS,32 µM
CC1OC(OC2C[C@](O)(C(=O)CF)Cc3c(O)c4c(c(O)c32)C(=O)c2ccccc2C4=O)CC(N)C1O (some centres not stated),TGI,HS 578T breast,117 nM
same,TGI,CCRF-CEM leukemia,0.0133 µM
same,TGI,M14 melanoma,0.368 µM
same,TGI,SF-268 CNS,1.37 µM
same,TGI,SF-539 CNS,1.33 µM
same,TGI,IGROV1 ovarian,2.4 µM
same,TGI,SN12C renal,0.338 µM
same,TGI,RPMI-8226 leukemia,0.132 µM
same,TGI,A498 renal,1.28 µM
same,TGI,EKVX NSCLC,4.64 µM
same,TGI,MOLT-4 leukemia,0.0101 µM
same,TGI,HOP-92 NSCLC,805 nM
same,TGI,UO-31 renal,1.02 µM
same,TGI,KM20L2 colon,0.353 µM
same,TGI,DLD-1 colon,0.333 µM
same,TGI,SW-620 colon,0.741 µM
same,TGI,HCT-15 colon,0.514 µM
same,TGI,MDA-N,333 nM
same,TGI,NCI-H522 lung,0.104 µM
same,TGI,786-0 renal,0.173 µM
same,TGI,OVCAR-4 ovarian,0.86 µM
same,TGI,MDA-MB-435,321 nM
same,TGI,NCI-H460 lung,0.031 µM
same,TGI,DU-145 prostate,1140 nM
same,TGI,K-562 leukemia,1.96 µM
same,TGI,HT29 colon,0.0905 µM
same,TGI,RXF 393 renal,0.268 µM
same,TGI,LXFL 529 NSCLC,1.27 µM
same,TGI,OVCAR-5 ovarian,541 nM
same,TGI,SK-OV-3 ovarian,1.04 µM
same,TGI,TK-10 renal,0.497 µM
same,TGI,OVCAR-8 ovarian,0.231 µM
same,TGI,A549 NSCLC,0.173 µM
same,TGI,XF 498 CNS,389 nM
same,TGI,CAKI-1 renal,0.0763 µM
same,TGI,UACC-257 melanoma,1.21 µM
same,TGI,DMS 114 small cell lung,142 nM
same,TGI,ACHN renal,0.0777 µM
same,TGI,UACC-62 melanoma,0.117 µM
same,TGI,COLO 205 colon,0.266 µM
same,TGI,MDA-MB-231 breast,283 nM
same,TGI,BT-549 breast,918 nM
same,TGI,MCF7 breast,1080 nM
same,TGI,NCI-H23 lung,0.169 µM
same,TGI,MALME-3M melanoma,0.191 µM
same,TGI,SK-MEL-5 melanoma,0.0657 µM
same,TGI,M19-MEL melanoma,0.248 µM
same,TGI,KM12 colon,0.239 µM
same,TGI,LOX IMVI melanoma,0.276 µM
same,TGI,SNB-78 CNS,3.53 µM
same,TGI,SK-MEL-28 melanoma,1910 nM
same,TGI,HOP-62 NSCLC,0.0462 µM
same,TGI,T-47D breast,151 nM
same,TGI,PC-3 prostate,354 nM
same,TGI,OVCAR-3 ovarian,1.49 µM
same,TGI,SR leukemia,70.8 nM
same,TGI,NCI-H226 lung,< 0.0171 µM
same,TGI,SK-MEL-2 melanoma,0.512 µM
same,TGI,DMS 273 small cell lung,0.104 µM
same,TGI,SF-295 CNS,4.74 µM
same,TGI,HCC-2998 colon,0.488 µM
same,TGI,HCT-116 colon,0.388 µM
same,TGI,HL-60(TB) leukemia,< 0.0291 µM
same,TGI,SNB-19 CNS,5.23 µM
same,TGI,SNB-75 CNS,0.09 µM
same,TGI,U251 CNS,0.394 µM

# Reference: PubChem BioAssay (NCI)
